In PMC9037180, “Ligand-based design and synthesis of N'-Benzylidene-3,4-dimethoxybenzohydrazide derivatives as potential antimicrobial agents; evaluation by in vitro, in vivo, and in silico approaches with SAR studies” (Journal of Enzyme Inhibition and Medicinal Chemistry, 2022):
pIC50: −log10 of the molar value. ≈ marks a conversion by molar mass, not a printed value.

What was measured:
E. coli ATCC 25922 = test: Minimal inhibitory concentration (MIC), broth dilution; details: Escherichia coli
[1] = test system: S. typhi clinical isolate; test: as above; format: cell-based; details: Salmonella enterica, TYPHI
P. aeruginosa ATCC10145 = test: as above; details: Pseudomonas aeruginosa
[2] = Cytotoxicity on cells using MTT assay; format: cell-based; details: African green monkey, Vero cells (normal mammalian cell line)
Method: The newly synthesised compounds were looked deeply into their efficacy using in silico, in vitro, and in vivo approaches. On the other hand, the cytotoxicity assay was performed for the tested compounds using a normal mammalian Vero cell line by the MTT assay[31]^,[32].
Moreover, the cytotoxicity values of the target compounds were determined to calculate their corresponding IC50 values through the MTT assay. The IC50 value indicates the compound’s concentration that is required to inhibit 50% of the target cells.
The MTT (3–(4,5-dimethylthiazol-2-yl)-2,5-diphenyltetrazolium bromide) tetrazolium reduction assay protocol was applied to determine the cytotoxicity of the target compounds (4a–j) on cells.

S. aureus = test: Minimal bactericidal concentration (MBC); format: cell-based; details: Staphylococcus aureus
Method: (§1) After determining the MIC for the target compounds, the minimal bactericidal concentration (MBC) for each compound that is required to kill each one of the above-mentioned microorganisms was assessed.

E. faecalis = test: Minimal bactericidal concentration (MBC); format: cell-based; details: Enterococcus faecalis
Method: as §1

C. albicans [3] = test: Minimal bactericidal concentration (MBC); format: cell-based; details: Candida albicans
Method: as §1

E. coli = test: Minimal bactericidal concentration (MBC); format: cell-based; details: Escherichia coli
Method: as §1

A. baumanii ATCC 19606 = test: Minimal inhibitory concentration (MIC), broth dilution; details: Acinetobacter baumannii, ATCC19606
C. albicans [4] = test: Agar well diffusion assay (antifungal); format: cell-based; details: result in words
Method: The agar well diffusion assay was first done to evaluate the antimicrobial activities of the different target compounds (4a–j) against gram-positive bacteria, gram-negative bacteria, and fungi (Table 1A). […] First, the antibacterial activities were tested against S. aureus ATCC 6538, Acientobacter (A. baumanii) ATCC 19606, S. typhi, E. coli, and P. aeruginosa as examples of the most common gram-positive and gram-negative bacteria, in comparison to vancomycin and ceftriaxone as two reference standards. In addition, the antifungal activities were screened against C. albicans, in comparison to amphotericin as a reference standard. […] The antibacterial activities of some tested compounds (4a, 4b, 4h, and 4e) against gram-positive and gram-negative bacteria by agar well diffusion assay are represented in the supplementary data (Figure SI1).
(§2) In vitro evaluation for antifungal activities regarding target compounds (4a–j) as well as reference drug, was done against C. albicans MTCC183 through the zone inhibition technique using well diffusion agar assay in addition to MIC.
A modification of the agar well diffusion method[55] was done to detect the antimicrobial activities of different compounds (4a–j) against gram-positive bacteria, gram-negative bacteria, and fungi. […] The zones of inhibition were measured in cm.

S. typhi = test: Minimal bactericidal concentration (MBC); format: cell-based; details: Salmonella enterica
P. Auriginosa = test: Minimal bactericidal concentration (MBC); format: cell-based, P. aeruginosa; details: Pseudomonas aeruginosa
Method: as §1

E. faecalis ATCC 29212 = test: Minimal inhibitory concentration (MIC), broth dilution; details: Enterococcus faecalis, ATCC29212
Aciento sensitive = test: Minimal bactericidal concentration (MBC); format: cell-based, A. baumanii; details: Acinetobacter baumannii
Method: as §1

S. aureus ATCC 6538 = test: Minimal inhibitory concentration (MIC), broth dilution; details: Staphylococcus aureus, ATCC6538
C. albicans MTCC183 = test: as above; format: cell-based; details: Candida albicans, MTCC183
Description: as §2

Acientobacter sensitive = test: as above; details: Acinetobacter baumannii
[5] = test system: E. faecalis, Acientobacter, P. auriginosa, S. aureus, S. typhi, E. coli, C. albicans; test: Average MIC over the nine tested microbial species (SAR); format: cell-based; details: for antimicrobial activity (SAR grading): based on MIC average values; for MIC: read-out: Average MIC
Description: Herein, we aimed to study the structure-antimicrobial activity relationship of the newly synthesised N'-benzylidene-3,4-dimethoxybenzohydrazide derivatives based on MIC average values[51]^,[52] as represented in the supplementary data (Table SI1). Thereby, the changes in their antimicrobial potential and spectrum upon structural modifications could be unveiled, thus offering clues for structural changes that are capable of increasing the antimicrobial potential.

Aciento MDR = test: Minimal inhibitory concentration (MIC), broth dilution; details: Acinetobacter baumannii

Row | SMILES | MIC (E. coli ATCC 25922; ATCC25922) | MIC [1] | MIC (P. aeruginosa ATCC10145; ATCC10145) | MBC (S. aureus) | MBC (E. faecalis) | MBC (E. coli) | MIC (A. baumanii ATCC 19606) | MBC (S. typhi) | MBC (P. Auriginosa) | MIC (E. faecalis ATCC 29212) | MIC (S. aureus ATCC 6538) | MIC (C. albicans MTCC183) | MIC (Acientobacter sensitive) | antimicrobial activity (SAR grading) [5] | MIC [5] | MIC (Aciento MDR) | further results
1 | COc1ccc(C(=O)NN=Cc2ccc(N)cc2)cc1OC [Compound 4a, N'-(4-aminobenzylidene)-3,4-dimethoxybenzohydrazide] | 52.1 µM (≈ 15.6 µg/mL) | 52.1 µM (≈ 15.6 µg/mL) | 52.1 µM (≈ 15.6 µg/mL) | 105 µM (≈ 31.3 µg/mL) | 105 µM (≈ 31.3 µg/mL) | 105 µM (≈ 31.3 µg/mL) | 105 µM (≈ 31.3 µg/mL) | 105 µM (≈ 31.3 µg/mL) | 105 µM (≈ 31.3 µg/mL) | 52.1 µM (≈ 15.6 µg/mL) | 26.1 µM (≈ 7.82 µg/mL) | 26.1 µM (≈ 7.82 µg/mL) | 52.1 µM (≈ 15.6 µg/mL) | high antimicrobial activity | 58 µM (≈ 17.4 µg/mL) | 105 µM (≈ 31.3 µg/mL) | pIC50 [2]: 3.39; MBC (C. albicans [3]): 105 µM (≈ 31.3 µg/mL); zones of inhibition (antifungal activity) (C. albicans [4]): best antifungal activity; MBC (Aciento sensitive): 105 µM (≈ 31.3 µg/mL)
2 | CCOc1ccc(C=NNC(=O)c2ccc(OC)c(OC)c2)cc1 [Compound 4b, N'-(4-ethoxybenzylidene)-3,4-dimethoxybenzohydrazide] | 23.8 µM (≈ 7.82 µg/mL) | 23.8 µM (≈ 7.82 µg/mL) | 23.8 µM (≈ 7.82 µg/mL) | – | – | – | 190 µM (≈ 62.6 µg/mL) | 95.4 µM (≈ 31.3 µg/mL) | 95.4 µM (≈ 31.3 µg/mL) | 381 µM (≈ 125 µg/mL) | 95.4 µM (≈ 31.3 µg/mL) | 95.4 µM (≈ 31.3 µg/mL) | 47.5 µM (≈ 15.6 µg/mL) | weakest antimicrobial activity | 140 µM (≈ 46 µg/mL) | 381 µM (≈ 125 µg/mL) | MIC (E. coli ATCC 25922; ATCC25922, 24 h): 23.3 µM (≈ 7.64 µg/mL); MIC ([1]; 24 h): 23.3 µM (≈ 7.64 µg/mL); MIC (P. aeruginosa ATCC10145; ATCC10145, 24 h): 23.3 µM (≈ 7.64 µg/mL)
3 | COc1ccc(C(=O)NN=Cc2ccc(NC(C)=O)cc2)cc1OC [Compound 4c, N-(4-((2–(3,4-dimethoxybenzoyl)hydrazono)methyl)phenyl)acetamide] | 22.9 µM (≈ 7.81 µg/mL) | 183 µM (≈ 62.5 µg/mL) | 22.9 µM (≈ 7.81 µg/mL) | 91.8 µM (≈ 31.3 µg/mL) | 91.8 µM (≈ 31.3 µg/mL) | – | 91.8 µM (≈ 31.3 µg/mL) | – | – | 45.7 µM (≈ 15.6 µg/mL) | 45.7 µM (≈ 15.6 µg/mL) | 91.8 µM (≈ 31.3 µg/mL) | 45.7 µM (≈ 15.6 µg/mL) | moderate antimicrobial potential | 81.4 µM (≈ 27.8 µg/mL) | 183 µM (≈ 62.5 µg/mL) | –
4 | COc1ccc(C(=O)NN=Cc2c(C)cc(C)cc2C)cc1OC [Compound 4d, N'-(2,4,6-trimethylbenzylidene)-3,4-dimethoxybenzohydrazide] | 47.8 µM (≈ 15.6 µg/mL) | 96 µM (≈ 31.3 µg/mL) | 96 µM (≈ 31.3 µg/mL) | 192 µM (≈ 62.5 µg/mL) | 192 µM (≈ 62.5 µg/mL) | 192 µM (≈ 62.5 µg/mL) | 192 µM (≈ 62.5 µg/mL) | 192 µM (≈ 62.5 µg/mL) | – | 96 µM (≈ 31.3 µg/mL) | 47.8 µM (≈ 15.6 µg/mL) | 192 µM (≈ 62.5 µg/mL) | 192 µM (≈ 62.5 µg/mL) | weakest antimicrobial activity | 149 µM (≈ 48.7 µg/mL) | 383 µM (≈ 125 µg/mL) | –
